Data from PubChem BioAssay (NCI).
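A five-concentration, 48-hour dose response in 96-well plates underlies each endpoint, interpolated linearly between surrounding concentrations. TGI: total growth inhibition.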

Key:
Assay in all cases: inhibition of tumour cell growth, NCI panel, 48 h
RXF 393 renal = system: RXF 393 renal
M14 melanoma = system: M14 melanoma
K-562 leukemia = system: K-562 leukemia
DU-145 prostate = system: DU-145 prostate
OVCAR-8 ovarian = system: OVCAR-8 ovarian
SN12C renal = system: SN12C renal
HCC-2998 colon = system: HCC-2998 colon
CCRF-CEM leukemia = system: CCRF-CEM leukemia
HCT-15 colon = system: HCT-15 colon
UACC-62 melanoma = system: UACC-62 melanoma
SK-MEL-28 melanoma = system: SK-MEL-28 melanoma
A549 NSCLC = system: A549 NSCLC
HOP-62 NSCLC = system: HOP-62 NSCLC
SF-539 CNS = system: SF-539 CNS
A498 renal = system: A498 renal
SNB-75 CNS = system: SNB-75 CNS
MOLT-4 leukemia = system: MOLT-4 leukemia
KM12 colon = system: KM12 colon
NCI/ADR-RES ovarian = system: NCI/ADR-RES ovarian
EKVX NSCLC = system: EKVX NSCLC
PC-3 prostate = system: PC-3 prostate
SK-MEL-2 melanoma = system: SK-MEL-2 melanoma
SF-268 CNS = system: SF-268 CNS
OVCAR-4 ovarian = system: OVCAR-4 ovarian
UACC-257 melanoma = system: UACC-257 melanoma
NCI-H226 lung = system: NCI-H226 lung
MDA-N = system: MDA-N
SF-295 CNS = system: SF-295 CNS
T-47D breast = system: T-47D breast
NCI-H522 lung = system: NCI-H522 lung
OVCAR-3 ovarian = system: OVCAR-3 ovarian
ACHN renal = system: ACHN renal
SK-MEL-5 melanoma = system: SK-MEL-5 melanoma
COLO 205 colon = system: COLO 205 colon
NCI-H23 lung = system: NCI-H23 lung
HCT-116 colon = system: HCT-116 colon
LOX IMVI melanoma = system: LOX IMVI melanoma
OVCAR-5 ovarian = system: OVCAR-5 ovarian
MDA-MB-231 breast = system: MDA-MB-231 breast
NCI-H460 lung = system: NCI-H460 lung
RPMI-8226 leukemia = system: RPMI-8226 leukemia
TK-10 renal = system: TK-10 renal
CAKI-1 renal = system: CAKI-1 renal
SNB-19 CNS = system: SNB-19 CNS
UO-31 renal = system: UO-31 renal
SR leukemia = system: SR leukemia
BT-549 breast = system: BT-549 breast
U251 CNS = system: U251 CNS
HT29 colon = system: HT29 colon
SK-OV-3 ovarian = system: SK-OV-3 ovarian
786-0 renal = system: 786-0 renal
IGROV1 ovarian = system: IGROV1 ovarian
MALME-3M melanoma = system: MALME-3M melanoma
HL-60(TB) leukemia = system: HL-60(TB) leukemia
SW-620 colon = system: SW-620 colon
MCF7 breast = system: MCF7 breast
MDA-MB-435 = system: MDA-MB-435

SMILES: O=c1oc2ccccc2c(O)c1/C=N/C(=S)Nc1ccccc1
- TGI (RXF 393 renal): 0.833 µM
- TGI (M14 melanoma): > 100 µM
- TGI (K-562 leukemia): > 100 µM
- TGI (DU-145 prostate): > 100 µM
- TGI (OVCAR-8 ovarian): > 100 µM
- TGI (SN12C renal): > 100 µM
- TGI (HCC-2998 colon): > 100 µM
- TGI (CCRF-CEM leukemia): > 100 µM
- TGI (HCT-15 colon): > 100 µM
- TGI (UACC-62 melanoma): > 100 µM
- TGI (SK-MEL-28 melanoma): > 100 µM
- TGI (A549 NSCLC): > 100 µM
- TGI (HOP-62 NSCLC): > 100 µM
- TGI (SF-539 CNS): > 100 µM
- TGI (A498 renal): > 100 µM
- TGI (SNB-75 CNS): 97.8 µM
- TGI (MOLT-4 leukemia): > 100 µM
- TGI (KM12 colon): > 100 µM
- TGI (NCI/ADR-RES ovarian): > 100 µM
- TGI (EKVX NSCLC): > 100 µM
- TGI (PC-3 prostate): > 100 µM
- TGI (SK-MEL-2 melanoma): 94.7 µM
- TGI (SF-268 CNS): > 100 µM
- TGI (OVCAR-4 ovarian): > 100 µM
- TGI (UACC-257 melanoma): > 100 µM
- TGI (NCI-H226 lung): > 100 µM
- TGI (MDA-N): > 100 µM
- TGI (SF-295 CNS): > 100 µM
- TGI (T-47D breast): > 100 µM
- TGI (NCI-H522 lung): > 100 µM
- TGI (OVCAR-3 ovarian): > 100 µM
- TGI (ACHN renal): > 100 µM
- TGI (SK-MEL-5 melanoma): > 100 µM
- TGI (COLO 205 colon): > 100 µM
- TGI (NCI-H23 lung): > 100 µM
- TGI (HCT-116 colon): > 100 µM
- TGI (LOX IMVI melanoma): > 100 µM
- TGI (OVCAR-5 ovarian): > 100 µM
- TGI (MDA-MB-231 breast): > 100 µM
- TGI (NCI-H460 lung): > 100 µM

SMILES: N#CCCC(CC#N)N1CCN(C(CC#N)CCC#N)CC1 (stereo unspecified)
- TGI (RXF 393 renal): > 100 µM
- TGI (M14 melanoma): > 100 µM
- TGI (K-562 leukemia): > 100 µM
- TGI (RPMI-8226 leukemia): > 100 µM
- TGI (DU-145 prostate): > 100 µM
- TGI (OVCAR-8 ovarian): > 100 µM
- TGI (TK-10 renal): > 100 µM
- TGI (SN12C renal): > 100 µM
- TGI (CAKI-1 renal): > 100 µM
- TGI (HCC-2998 colon): > 100 µM
- TGI (CCRF-CEM leukemia): > 100 µM
- TGI (HCT-15 colon): > 100 µM
- TGI (UACC-62 melanoma): > 100 µM
- TGI (SK-MEL-28 melanoma): > 100 µM
- TGI (A549 NSCLC): > 100 µM
- TGI (HOP-62 NSCLC): > 100 µM
- TGI (SNB-19 CNS): > 100 µM
- TGI (UO-31 renal): > 100 µM
- TGI (SR leukemia): > 100 µM
- TGI (SF-539 CNS): > 100 µM
- TGI (BT-549 breast): > 100 µM
- TGI (SNB-75 CNS): > 100 µM
- TGI (U251 CNS): > 100 µM
- TGI (MOLT-4 leukemia): > 100 µM
- TGI (NCI/ADR-RES ovarian): > 100 µM
- TGI (EKVX NSCLC): > 100 µM
- TGI (HT29 colon): > 100 µM
- TGI (PC-3 prostate): > 100 µM
- TGI (SK-OV-3 ovarian): > 100 µM
- TGI (SF-268 CNS): > 100 µM
- TGI (OVCAR-4 ovarian): > 100 µM
- TGI (UACC-257 melanoma): > 100 µM
- TGI (786-0 renal): > 100 µM
- TGI (NCI-H226 lung): > 100 µM
- TGI (IGROV1 ovarian): > 100 µM
- TGI (MDA-N): > 100 µM
- TGI (SF-295 CNS): > 100 µM
- TGI (MALME-3M melanoma): > 100 µM
- TGI (NCI-H522 lung): > 100 µM
- TGI (OVCAR-3 ovarian): > 100 µM
- TGI (ACHN renal): > 100 µM
- TGI (SK-MEL-5 melanoma): > 100 µM
- TGI (COLO 205 colon): > 100 µM
- TGI (NCI-H23 lung): > 100 µM
- TGI (HL-60(TB) leukemia): > 100 µM
- TGI (SW-620 colon): > 100 µM
- TGI (HCT-116 colon): > 100 µM
- TGI (OVCAR-5 ovarian): > 100 µM
- TGI (NCI-H460 lung): > 100 µM
- TGI (MCF7 breast): > 100 µM

SMILES: N#CCCC1(CCC#N)CCc2ccccc2C1=O
- TGI (M14 melanoma): > 100 µM
- TGI (K-562 leukemia): > 100 µM
- TGI (RPMI-8226 leukemia): > 100 µM
- TGI (DU-145 prostate): > 100 µM
- TGI (OVCAR-8 ovarian): > 100 µM
- TGI (TK-10 renal): > 100 µM
- TGI (SN12C renal): > 100 µM
- TGI (CAKI-1 renal): > 100 µM
- TGI (HCC-2998 colon): > 100 µM
- TGI (CCRF-CEM leukemia): > 100 µM
- TGI (HCT-15 colon): > 100 µM
- TGI (UACC-62 melanoma): > 100 µM
- TGI (SK-MEL-28 melanoma): > 100 µM
- TGI (HOP-62 NSCLC): > 100 µM
- TGI (SNB-19 CNS): > 100 µM
- TGI (UO-31 renal): > 100 µM
- TGI (SR leukemia): > 100 µM
- TGI (SF-539 CNS): > 100 µM
- TGI (SNB-75 CNS): > 100 µM
- TGI (U251 CNS): > 100 µM
- TGI (MOLT-4 leukemia): > 100 µM
- TGI (KM12 colon): > 100 µM
- TGI (MDA-MB-435): > 100 µM
- TGI (NCI/ADR-RES ovarian): > 100 µM
- TGI (EKVX NSCLC): > 100 µM
- TGI (HT29 colon): > 100 µM
- TGI (PC-3 prostate): > 100 µM
- TGI (SK-OV-3 ovarian): > 100 µM
- TGI (SK-MEL-2 melanoma): > 100 µM
- TGI (SF-268 CNS): > 100 µM
- TGI (OVCAR-4 ovarian): > 100 µM
- TGI (UACC-257 melanoma): > 100 µM
- TGI (786-0 renal): > 100 µM
- TGI (NCI-H226 lung): > 100 µM
- TGI (IGROV1 ovarian): > 100 µM
- TGI (MDA-N): > 100 µM
- TGI (T-47D breast): > 100 µM
- TGI (MALME-3M melanoma): > 100 µM
- TGI (NCI-H522 lung): > 100 µM
- TGI (OVCAR-3 ovarian): > 100 µM
- TGI (ACHN renal): > 100 µM
- TGI (SK-MEL-5 melanoma): > 100 µM
- TGI (NCI-H23 lung): > 100 µM
- TGI (HL-60(TB) leukemia): > 100 µM
- TGI (SW-620 colon): > 100 µM
- TGI (HCT-116 colon): > 100 µM
- TGI (LOX IMVI melanoma): > 100 µM
- TGI (OVCAR-5 ovarian): > 100 µM
- TGI (MDA-MB-231 breast): > 100 µM
- TGI (NCI-H460 lung): > 100 µM
- TGI (MCF7 breast): > 100 µM
